This passage reports IC50 results from ChEMBL document CHEMBL3098123, “New inhibitors of cytomegalovirus DNA polymerase” (ACS Med Chem Lett, 2013).

A short description of this assay: Inhibition of GST-tagged recombinant human cytomegalovirus DNA polymerase catalytic subunit UL54 expressed in baculovirus infected insect Sf21 cells assessed as incorporation of biotin-tagged dUTP after 30 mins by LANCE TR-FRET assay. Details: species or system Human betaherpesvirus 5. (TR-FRET usually uses a lanthanide donor and a delayed reading to cut background.)
Usually IC50 stands for the point on the concentration scale where inhibition reaches its midpoint. Turning to `COc1cc(N)nc2c1cc(C(=O)NCc1ccc(Cl)cc1)c(=O)n2CC(=O)N(C)CC1(CO)COC1`, the IC50 was determined as 0.022 µM.

Turning to `CN(CC(=O)O)c1ccnc2c1cc(C(=O)NCc1ccc(Cl)cc1)c(=O)n2CC(=O)N1CC(C)(C)C1`, the 50% inhibitory concentration (IC50) was 0.05 µM.

As to `CC1(C)CN(C(=O)Cn2c(=O)c(C(=O)NCc3ccc(Cl)cc3)cc3cc(-c4nn[nH]n4)cnc32)C1`, the IC50 was 0.03 µM.
